Measurements as given in patent publication US8278315B2, “Radiotherapy method using x-rays” (priority 2002, dated 2012).

Key:
[1] = mouse studies, compared with DOX; cited from earlier work
DOX-resistant cells = details: cited from earlier work
[2] = DOX-treated patients; cited from earlier work
[3] = loss of UV absorbance at 260 nm after X-rays from a silver target; format: physicochemical; details: 20 μg/ml, per 100 Rads
Text: The phenanthroline groups on Dichlorotris(1,10-phenanthroline) ruthenium (II) hydrate absorb in the UV region with a peak absorbance at or near 260 nm. Loss or damage to these groups can be estimated by determining the UV absorbance before and after treatment with X-rays generated by a silver target which is optimum for Ru. Over several experiments replicating treatments with 100 Rad or using increasing amounts of X-rays between 50 Rads and 1000 Rads a loss of UV absorbance at 260 nm of 0.5% to 1% per 100 Rads has been determined.

neuroblastoma lines = assay: nuclear chemotherapy: ^77BrdC on neuroblastoma lines; format: cell-based
Procedure: An investigation of a method called “nuclear chemotherapy” was done many years previously at Sloan-Kettering Research Institute in New York, by Dr. Chia-Gee Wang and Dr. Lawrence Helson. The research was done using ^77BrdC, where ^77Br (half-life at 57 hours) would undergo a K-capture and deliver 10^6 or more Gy at a small distance. The […] of BrdC to BrdU can be blocked by the non-toxic H4U and therefore excluding BrdC from being incorporated into the DNA pool. Certain transformed cells, on the other hand, would make use of a more primitive kinase to bypass the H4U blockage, and incorporate BrdC to form BrdU. The ^77Br was made by adding an a particle to ^75As in a facility in the U.K. ^77Br was obtained in liquid solution, and ^77BrdC was made. […] The Auger electrons from the ^77BrdU delivered such a high dose of the DNA duplex that no cellular repair was possible.

B-DNA = details: cited from earlier work

## C[C@@H]1O[C@@H](O[C@H]2C[C@](O)(C(=O)CO)Cc3c(O)c4c(c(O)c32)C(=O)c2ccccc2C4=O)[C@H](I)[C@H](O)[C@H]1O [ANN, annamycin]
[1]
  cardiotoxicity: less cardiotoxic
DOX-resistant cells
  cross resistance: lack of cross resistance

## COc1cccc2c1C(=O)c1c(O)c3c(c(O)c1C2=O)C[C@@](O)(C(=O)CO)C[C@@H]3O[C@H]1C[C@H](N)[C@H](O)[C@H](C)O1 [DOX, doxorubicin]
[2]
  frequency of relapse: ≤ 50%

## O.[Cl][Ru][Cl].c1cnc2c(c1)ccc1cccnc12.c1cnc2c(c1)ccc1cccnc12.c1cnc2c(c1)ccc1cccnc12 [Dichlorotris(1,10-phenanthroline) ruthenium (II) hydrate]
[3]
  phenanthroline groups damaged: ~10^14 per ml

## Nc1nc(=O)n(C2CC(O)C(CO)O2)cc1[77Br] (stereo not drawn) [^77BrdC]
Neuroblastoma lines; sensitive lines, no immediate cell death
  effect on sensitive tumor lines: stopped mitosis
Neuroblastoma lines; ten neuroblastoma lines tested, H4U blockage
  sensitivity of neuroblastoma lines: two of the ten lines were sensitive

## CS(C)=O.CS(C)=O.CS(C)=O.CS(C)=O.[Cl][Ru][Cl] [cis-form of [Cl2(Me2SO)4Ru], [Cl2(Me2SO)4Ru]]
B-DNA
  effect on conformation of B-DNA: does not significantly affect the conformation of B-DNA
  effect on thermal stability of B-DNA: increases its thermal stability

## [Cl2(Me2SO)4Ru] [trans-form]
B-DNA; compared with the cis-form
  rate of DNA binding: binds more rapidly
